Entries after “also recorded” stand apart in the source; their conditions may differ. Like-named read-outs stand apart in the source and are kept apart here.
Legend:
Aβ peptide (1–42) = biological target: T1, Aβ peptide (1–42) (Homo sapiens, UniProt P05067); experiment: biochemical
T1 construct: The Aβ peptide (1–42) was synthesized and purchased from Kelowna International Scientific Inc; purchased Kelowna International Scientific Inc. (New Taipei, Taiwan); host or cells: chemical synthesis
Description: To prepare the 10 μM Aβ peptide working solution, commercial Aβ peptide was first weighted and dissolved in HFIP to 1 mM. Next, the solvent was evaporated in a hood and then re-dissolved using 100 μL of 60 mM NaOH. It was then diluted to 10 μM working solutions with 50 mM phosphate buffer (pH 7.4, containing 150 mM sodium chloride and 1 mM EDTA), following previous reports. […] DMSO instead of the sample solution was used as the control. The 50 mM phosphate buffer was used instead of the Aβ working solution as the sample blank. […] The IC50 of the inhibition against the Aβ aggregation of PIC and its analogs was calculated from each linear equation using three test concentrations and their inhibition capacities.

[1] = DPPH radical scavenging activity; conditions: 120 μM DPPH in methanol, 37 °C, 20 min
Description: DPPH radical scavenging activity was assayed following a previous report, with some modifications. […] DMSO was used instead of a sample solution in the blank group. […] The scavenging activity of the DPPH radical (%) was calculated with the following equation: (△A515blank − △A515sample) ÷ △A515blank × 100%. The IC50 of the DPPH radical scavenging activity of PIC and its analogs or that of Trolox was calculated from each linear equation by three test concentrations and their radical scavenging activities.

SH-SY5Y cells [2] = experiment: Cytotoxicity on SH-SY5Y cells (MTT); format: cell-based; conditions: 1, 2, 5 and 10 μM, MTT (Figure S1)
Description: The human SH-SY5Y neuroblastoma cell lines (CRL-2266, Lot No. 58979771) were purchased from American Type Culture Collection (Manassas, VA, USA) and used as models to investigate PIC and its analogs for neuroprotective activities against Aβ-induced cell deaths and the stimulation of neurite outgrowths. The SH-SY5Y cells were grown in DMEM/F-12 medium supplemented with 10% FBS at 37 °C under a humidified atmosphere and 5% CO2 [41]. […]. The SH-SY5Y cells (10,000 cells/well) were seeded and cultured in a DMEM/F-12 medium containing 10% FBS for 24 h at 37 °C under a humidified atmosphere and 5% CO2. […] The medium was then removed, and 40 μg/mL Aβ peptide (25–35) (dissolved in PBS) or an equal aliquot of PBS was added to the medium for another 24 h culture. The MTT was used to evaluate cell viability, and the absorbance at 570 nm was determined. The DMSO used instead of the sample solution was blank (recognized as 100%), and each treatment was expressed as relative cell viability (%). […] To measure cell viability and quantify the neurite outgrowths of the treated SH-SY5Y in a 96-well plate, the neurite outgrowth staining kit (a two-color fluorescence assay kit) was used, following a previous report or the protocol in the manufacturer’s manual (publication number: MAN0007224), which included a cell membrane-stained fluorescent dye (orange-red fluorescence), a cell viability indicator (green fluorescence), and a reagent for background masking. The fluorescence ratios of Ex555nm/Em565nm and Ex495nm/Em515nm were determined for the neurite outgrowths and the cell viabilities, respectively. […]
The following supporting information can be downloaded at: https://www.mdpi.com/article/10.3390/antiox12071362/s1. […] The MTT was used to evaluate cell viability, and the absorbance at 570 nm was determined. The DMSO used instead of the sample solution was blank (recognized as 100%), and each treatment was expressed as relative cell viability (%). […]

SH-SY5Y cells [3] = experiment: Neurite outgrowth and cell viability, two-color fluorescence assay kit; format: cell-based; conditions: 10 μM; for stimulation of neurite outgrowths: 3-day or 6-day treatment, orange-red fluorescence, vs control
Description: (§1) The SH-SY5Y cells were grown in DMEM/F-12 medium supplemented with 10% FBS at 37 °C under a humidified atmosphere and 5% CO2 [41]. […] The MTT was used to evaluate cell viability, and the absorbance at 570 nm was determined. The DMSO used instead of the sample solution was blank (recognized as 100%), and each treatment was expressed as relative cell viability (%). To study the stimulation of neurite outgrowth, the SH-SY5Y cells (5000 cells/well) were seeded on a 96-well plate pre-coated with poly-L-lysine and then cultured in the DMEM/F-12 medium containing 10% FBS overnight at 37 °C under a humidified atmosphere and 5% CO2. After being removed from the culture medium, each PIC, GNT, RHA, and isoRHA (at a final concentration of 10 μM in the 0.1%DMSO) or 0.1% DMSO (the control) was added to the DMEM/F-12 medium containing 10% FBS and refreshed every three days. On day 3 and day 6, each of the culture plates was photographed using an inverted microscope (ECLIPSE TS100, Nikon Instruments Inc., Tokyo, Japan). The culture medium was removed and washed with PBS, and the cultured cells in each well were fixed with 4% paraformaldehyde. To measure cell viability and quantify the neurite outgrowths of the treated SH-SY5Y in a 96-well plate, the neurite outgrowth staining kit (a two-color fluorescence assay kit) was used, following a previous report or the protocol in the manufacturer’s manual (publication number: MAN0007224), which included a cell membrane-stained fluorescent dye (orange-red fluorescence), a cell viability indicator (green fluorescence), and a reagent for background masking. […] The value for the control was recognized as 100%, and each treatment was expressed relative to the control.

[4] = as above; format: cell-based; conditions: human, 3-day or 6-day treatment, green fluorescence, read-out: cell viability relative to the control
Description: as §1

SH-SY5Y cells [5] = experiment: Neuroprotection against Aβ peptide (25–35)-induced cell deaths (MTT); format: cell-based, human; conditions: pre-treatment 1, 2 and 10 μM for 24 h, then 40 μg/mL Aβ (25–35) 24 h; vs control p < 0.05
Description: The human SH-SY5Y neuroblastoma cell lines (CRL-2266, Lot No. 58979771) were purchased from American Type Culture Collection (Manassas, VA, USA) and used as models to investigate PIC and its analogs for neuroprotective activities against Aβ-induced cell deaths and the stimulation of neurite outgrowths. The SH-SY5Y cells were grown in DMEM/F-12 medium supplemented with 10% FBS at 37 °C under a humidified atmosphere and 5% CO2 [41]. […]. The SH-SY5Y cells (10,000 cells/well) were seeded and cultured in a DMEM/F-12 medium containing 10% FBS for 24 h at 37 °C under a humidified atmosphere and 5% CO2. […] The medium was then removed, and 40 μg/mL Aβ peptide (25–35) (dissolved in PBS) or an equal aliquot of PBS was added to the medium for another 24 h culture. The MTT was used to evaluate cell viability, and the absorbance at 570 nm was determined. The DMSO used instead of the sample solution was blank (recognized as 100%), and each treatment was expressed as relative cell viability (%). To study the stimulation of neurite outgrowth, the SH-SY5Y cells (5000 cells/well) were seeded on a 96-well plate pre-coated with poly-L-lysine and then cultured in the DMEM/F-12 medium containing 10% FBS overnight at 37 °C under a humidified atmosphere and 5% CO2. After being removed from the culture medium, each PIC, GNT, RHA, and isoRHA (at a final concentration of 10 μM in the 0.1%DMSO) or 0.1% DMSO (the control) was added to the DMEM/F-12 medium containing 10% FBS and refreshed every three days. On day 3 and day 6, each of the culture plates was photographed using an inverted microscope (ECLIPSE TS100, Nikon Instruments Inc., Tokyo, Japan). The culture medium was removed and washed with PBS, and the cultured cells in each well were fixed with 4% paraformaldehyde. To measure cell viability and quantify the neurite outgrowths of the treated SH-SY5Y in a 96-well plate, the neurite outgrowth staining kit (a two-color fluorescence assay kit) was used, following a previous report or the protocol in the manufacturer’s manual (publication number: MAN0007224), which included a cell membrane-stained fluorescent dye (orange-red fluorescence), a cell viability indicator (green fluorescence), and a reagent for background masking. The fluorescence ratios of Ex555nm/Em565nm and Ex495nm/Em515nm were determined for the neurite outgrowths and the cell viabilities, respectively. The value for the control was recognized as 100%, and each treatment was expressed relative to the control.

recombinant human AChE = biological target: T2, recombinant human AChE (Homo sapiens, UniProt P22303); experiment: AChE inhibitory activity in vitro (acetylthiocholine/DTNB); format: biochemical
T2 construct: purchased R&D Systems Inc. (Minneapolis, MN, USA)
T2 sequence (P22303 32-614): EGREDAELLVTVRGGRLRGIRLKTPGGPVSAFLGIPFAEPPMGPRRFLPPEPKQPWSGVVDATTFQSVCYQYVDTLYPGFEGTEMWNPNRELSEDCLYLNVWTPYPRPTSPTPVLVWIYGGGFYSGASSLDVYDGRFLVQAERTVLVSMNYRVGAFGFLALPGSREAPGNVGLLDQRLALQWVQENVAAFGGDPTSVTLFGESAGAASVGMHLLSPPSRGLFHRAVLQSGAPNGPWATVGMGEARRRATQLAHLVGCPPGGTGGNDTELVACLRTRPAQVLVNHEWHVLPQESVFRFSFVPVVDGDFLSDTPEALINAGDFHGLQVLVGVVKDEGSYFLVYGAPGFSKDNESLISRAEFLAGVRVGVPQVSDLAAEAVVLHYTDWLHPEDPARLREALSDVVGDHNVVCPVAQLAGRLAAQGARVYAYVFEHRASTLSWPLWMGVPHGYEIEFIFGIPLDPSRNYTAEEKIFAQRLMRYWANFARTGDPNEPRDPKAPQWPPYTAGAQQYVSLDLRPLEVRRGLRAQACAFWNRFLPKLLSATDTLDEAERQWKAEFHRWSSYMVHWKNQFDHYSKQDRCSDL
Description: Commercially synthesized acetylthiocholine iodide was hydrolyzed using AChE to release thiocholine, which was coupled with DTNB to generate the yellowish 5-thio-2-nitrobenzoate for in vitro AChE activity assays. For the AChE inhibitory activity assay, each analog was dissolved in the DMSO, and final concentrations of 100, 200, and 500 μM were used for comparisons. An equal volume of DMSO instead of the sample solution was used in the blank group and expressed as 100% AChE activity. […] AChE inhibition (%) was calculated as follows: [(A405blank − A405sample)/(A405blank)] × 100%.

[6] = oral administration to rats; cited from earlier work
[7] = rats, cited from earlier work
[8] = tested on: mild to moderate AD patients; conditions: human trial, 52 weeks, cited from earlier work
[9] = tested on: scopolamine-induced amnesiac ICR mice; experiment: Passive avoidance test in scopolamine-induced amnesiac ICR mice; format: in vivo, mouse; conditions: PIC 50 mg/kg oral once a day, donepezil 5 mg/kg oral, scopolamine 1 mg/kg i.p.
Excerpt: The scopolamine-induced cognitive dysfunctions of amnesiac ICR mice were used to evaluate the effects of PIC pre-treatments on the improvement of learning and memory functions, following previous reports. The animal experimental protocols were reviewed and approved by the Institutional Animal Care and Use Committee, Taipei Medical University (No. LAC-2021-0488). After a two-week acclimation, the mice were randomly divided into four groups (N = 5 for each group). In the first stage, the mice in the PIC group were orally pre-treated with PIC (50 mg/kg) using a feeding tube, once a day from day 1 to day 7; the mice in the blank, control, and donepezil groups were treated with the same volume of distilled water from day 1 to day 7. In the second stage, on day 8 and day 9, the mice in the PIC group and the donepezil group were orally treated once with PIC (50 mg/kg) and donepezil (positive control, 5 mg/kg), respectively, using a feeding tube; the mice in the blank and the control groups were treated with the same volume of distilled water. After 30 min, each mouse was injected intraperitoneally with scopolamine (1 mg/kg, dissolved in PBS), and the mice in the blank group were each injected with an equal volume of PBS instead of the scopolamine solution. Again, 30 min after the scopolamine or PBS injection, a learning and memory evaluation was performed on each mouse with the use of a 2-day passive avoidance test. All the mice were sacrificed at the end of the animal experiments, and the brain tissues of the mice in each group were isolated, weighted, and stored at −80 °C for further use.
A 2-day passive avoidance test, which included an acquisition trial on the first day and a retention trial on the second day, was used to evaluate the learning and memory functions of the scopolamine-induced cognitive dysfunctions of amnesiac ICR mice after PIC and donepezil treatments, following previous reports. A shuttle chamber (AccuScan Instruments Inc., Columbus, OH, USA) with a light box and a dark box separated by a sliding door was used. On day 8, after acclimation around the shuttle chamber for 30 min, each scopolamine-injected or PBS-injected mouse was placed in the light box for the acquisition trial. Once the mouse entered the dark box, the step-through latency (s) was recorded, and the sliding door was closed at the same time. Immediately after, the mouse was administered an electric foot shock (0.3 mA for 3 s) via the wired metal floor and then sent back to the cage. […] The step-through latency (period of time that each mouse stayed in the light box) was recorded again. […] The protein content of the whole brain extracts from the mice was quantified using the BCA protein kit, with bovine serum albumin as the standard protein. […]

[10] = 500 mg once daily up to 1000 mg twice daily

T1 sequence (P05067 672-713): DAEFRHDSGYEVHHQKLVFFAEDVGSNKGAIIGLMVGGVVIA

Compound | IC50 (Aβ peptide (1–42)) | IC50 [1] | cytotoxicity on SH-SY5Y cells (SH-SY5Y cells [2]) | stimulation of neurite outgrowths (SH-SY5Y cells [3]) | neuroprotection: cell viability against Aβ peptide (25–35)-induced cell deaths (SH-SY5Y cells [5]) | IC50 (recombinant human AChE) | also measured
Oc1cc(O)cc(C=Cc2c(O)cccc2O)c1 [GNT, 3,5,2′,6′-tetrahydroxystilbene] | 1.76 µM | 97 µM | insignificant cytotoxicity | not PIC nor GNT; also recorded: not PIC and GNT | elevated cell viabilities | 276 µM | viability at 10 µM [4]: 80%
COc1ccc(/C=C/c2cc(O)cc(O)c2)cc1O [RHA, 3,5,3′-trihydroxy-4′-methoxystilbene] | 2.93 µM | 57.8 µM | – | stimulate neurite outgrowths; also recorded: showed stimulated activities toward neurite outgrowths; also recorded: showed stimulatory activity in neurite outgrowths | elevated cell viabilities | 322 µM | total neurite lengths in living SH-SY5Y cells, fold of the control (SH-SY5Y cells [3]; calculated): 1.375 fold; viability at 10 µM ([4]; SH-SY5Y neuroblastoma cells): 80%
Oc1ccc(C=Cc2cc(O)cc(O)c2)cc1 [RSV, 3,5,4′-trihydroxystilbene] | – | – | insignificant cytotoxicity | – | elevated cell viabilities | – | bioavailability [6]: 29.8%; half-life [6]: 1.48 h; AUC0–8h in plasma, intact compound ([7]; co-administration of PIC and RSV, each at 180 μmol/kg): 4.1 µM·h; AUC0–8h in plasma, intact compound ([7]; intragastric, 90 μmol/kg): 2.0 µM·h; AUC0–8h in plasma, intact compound ([7]; intragastric, 180 μmol/kg): 4.7 µM·h; AUC0–8h in plasma, intact compound ([7]; intragastric, 360 μmol/kg): 8.6 µM·h; crossing of the blood–brain barrier [8, 10]: could cross the blood–brain barrier; safety and tolerance [8, 10]: safe and had good tolerance with adverse effects of nausea, diarrhea, and weight loss; Aβ42 and Aβ40 levels in the cerebrospinal fluid [8]: reduced
Cc1c(C)c2c(c(C)c1O)CCC(C)(C(=O)O)O2 (stereo not shown) [Trolox, 6-hydroxy-2,5,7,8-tetramethylchroman-2-carboxylic acid, reference compound] | – | 83.1 µM | – | – | – | – | –
COc1cc2c(cc1OC)C(=O)C(CC1CCN(Cc3ccccc3)CC1)C2 (stereo not shown) [donepezil, reference compound] | – | – | – | – | – | – | step-through latency, acquisition trial (first day) [9]: no significant difference among the groups; step-through latency, retention trial (second day) ([9]; vs control p < 0.05): longer staying time
